What was measured:
[1] = test system: bluegrass (annual bluegrass, Poa annua); test: Test D pre-/postemergence plant response; format: in vivo
Procedure, shortened: (§1)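 Seeds were sown in a loam–sand blend and sprayed preemergence with compound in a non-phytotoxic solvent mixture containing surfactant; plants at 2–18 cm (1- to 4-leaf stage) received the same formulation postemergence. After 14 to 21 days in a greenhouse, injury was rated visually against untreated controls (0 = no effect, 100 = complete control).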

[2] = test system: goosegrass (Eleusine indica); test: Test D pre-/postemergence plant response; format: in vivo
Procedure, shortened: as §1

[3] = test system: sandbur (southern sandbur, Cenchrus echinatus); test: Test D pre-/postemergence plant response; format: in vivo
Procedure, shortened: as §1

[4] = test system: naked crabgrass (Digitaria nuda); test: Test D pre-/postemergence plant response; format: in vivo
Procedure, shortened: as §1

[5] = test system: green foxtail (Setaria viridis); test: Test D pre-/postemergence plant response; format: in vivo
Procedure, shortened: as §1

[6] = test system: Italian ryegrass (Lolium multiflorum); test: Test D pre-/postemergence plant response; format: in vivo
Procedure, shortened: as §1

[7] = test system: ragweed (common ragweed, Ambrosia elatior); test: Test D pre-/postemergence plant response; format: in vivo
Procedure, shortened: as §1

[8] = test system: dayflower (Virginia (VA) dayflower, Commelina virginica); test: Test D pre-/postemergence plant response; format: in vivo
Procedure, shortened: as §1

[9] = test system: groundsel (common groundsel, Senecio vulgaris); test: Test D pre-/postemergence plant response; format: in vivo; details: Postemergence
Procedure, shortened: as §1

[10] = test system: johnsongrass (Sorghum halepense); test: Test D pre-/postemergence plant response; format: in vivo
Procedure, shortened: as §1

[11] = test system: bermudagrass (Cynodon dactylon); test: Test D pre-/postemergence plant response; format: in vivo
Procedure, shortened: as §1

[12] = test system: prickly sida (Sida spinosa); test: Test D pre-/postemergence plant response; format: in vivo
Procedure, shortened: as §1

[13] = test system: field bindweed (Convolvulus arvensis); test: Test D pre-/postemergence plant response; format: in vivo
Procedure, shortened: as §1

[14] = test system: mallow (common mallow, Malva sylvestris); test: Test D pre-/postemergence plant response; format: in vivo
Procedure, shortened: as §1

[15] = test system: quackgrass (Elytrigia repens); test: Test D pre-/postemergence plant response; format: in vivo
Procedure, shortened: as §1

[16] = Postemergence, 16 g ai/ha, scale 0 to 100
[17] = Postemergence, 31 g ai/ha, scale 0 to 100 (0 no effect, 100 complete control)
[18] = Postemergence, 125 g ai/ha, scale 0 to 100 (0 no effect, 100 complete control)
[19] = Postemergence, 62 g ai/ha, scale 0 to 100 (0 no effect, 100 complete control)
[20] = Preemergence, 16 g ai/ha, scale 0 to 100, 0 no effect, 100 complete control
[21] = Preemergence, 31 g ai/ha, scale 0 to 100 (0 no effect, 100 complete control)
[22] = Preemergence, 62 g ai/ha, scale 0 to 100
[23] = Preemergence, 125 g ai/ha, scale 0 to 100
[24] = Postemergence, 31 g ai/ha, scale 0 to 100

Cc1c(F)cccc1-n1c(-c2ccccc2)ncc(C(=O)C2=C(O)CCCC2=O)c1=O [Compound 47, 3-(3-fluoro-2-methylphenyl)-5-[(2-hydroxy-6-oxo-1-cyclohexen-1-yl)carbonyl]-2-phenyl-4(3H)-pyrimidinone]
Plant response rating, Bluegrass [1, 16]: 0 | Plant response rating, Bluegrass [1, 17]: 0 | Plant response rating, Bluegrass [1, 18]: 0 | Plant response rating, Bluegrass [1, 19]: 0 | Plant response rating, Bluegrass [1, 20]: 0 | Plant response rating, Bluegrass [1, 21]: 0 | Plant response rating, Bluegrass [1, 22]: 0 | Plant response rating, Bluegrass [1, 23]: 35 | Plant response rating, Goosegrass [2, 16]: 40 | Plant response rating, Goosegrass [2, 24]: 65 | Plant response rating, Goosegrass [2, 18]: 65 | Plant response rating, Goosegrass [2, 19]: 65 | Plant response rating, Goosegrass [2, 20]: 0 | Plant response rating, Goosegrass [2, 21]: 0 | Plant response rating, Goosegrass [2, 22]: 5 | Plant response rating, Goosegrass [2, 23]: 75 | Plant response rating, Sandbur [3, 16]: 5 | Plant response rating, Sandbur [3, 24]: 5 | Plant response rating, Sandbur [3, 18]: 35 | Plant response rating, Sandbur [3, 19]: 20 | Plant response rating, Sandbur [3, 20]: 0 | Plant response rating, Sandbur [3, 21]: 0 | Plant response rating, Sandbur [3, 23]: 90 | Plant response rating, Crabgrass, Naked [4, 16]: 20 | Plant response rating, Crabgrass, Naked [4, 24]: 35 | Plant response rating, Crabgrass, Naked [4, 18]: 65 | Plant response rating, Crabgrass, Naked [4, 19]: 35 | Plant response rating, Crabgrass, Naked [4, 20]: 0 | Plant response rating, Crabgrass, Naked [4, 21]: 0 | Plant response rating, Crabgrass, Naked [4, 22]: 60 | Plant response rating, Crabgrass, Naked [4, 23]: 98 | Plant response rating, Foxtail, Green [5, 16]: 5 | Plant response rating, Foxtail, Green [5, 24]: 35 | Plant response rating, Foxtail, Green [5, 18]: 95 | Plant response rating, Foxtail, Green [5, 19]: 50 | Plant response rating, Foxtail, Green [5, 20]: 0 | Plant response rating, Foxtail, Green [5, 21]: 0 | Plant response rating, Foxtail, Green [5, 22]: 0 | Plant response rating, Foxtail, Green [5, 23]: 0 | Plant response rating, Ryegrass, Italian [6, 16]: 0 | Plant response rating, Ryegrass, Italian [6, 24]: 10 | Plant response rating, Ryegrass, Italian [6, 18]: 30 | Plant response rating, Ryegrass, Italian [6, 19]: 20 | Plant response rating, Ryegrass, Italian [6, 20]: 0 | Plant response rating, Ryegrass, Italian [6, 21]: 0 | Plant response rating, Ryegrass, Italian [6, 23]: 0 | Plant response rating, Ryegrass, Italian ([6]; Preemergence, rate not given, scale 0 to 100, 0 no effect, 100 complete control): 0 | Plant response rating, Ragweed [7, 16]: 75 | Plant response rating, Ragweed [7, 24]: 75 | Plant response rating, Ragweed [7, 18]: 95 | Plant response rating, Ragweed [7, 19]: 80 | Plant response rating, Ragweed [7, 20]: 0 | Plant response rating, Ragweed [7, 21]: 50 | Plant response rating, Ragweed [7, 23]: 100 | Plant response rating, Dayflower, VA [8, 16]: 10 | Plant response rating, Dayflower, VA [8, 24]: 15 | Plant response rating, Dayflower, VA [8, 18]: 30 | Plant response rating, Dayflower, VA [8, 19]: 20 | Plant response rating, Dayflower, VA [8, 20]: 35 | Plant response rating, Dayflower, VA [8, 21]: 35 | Plant response rating, Dayflower, VA [8, 22]: 50 | Plant response rating, Dayflower, VA [8, 23]: 50 | Plant response rating, Groundsel ([9]; 16 g ai/ha, scale 0 to 100): 100 | Plant response rating, Groundsel ([9]; 31 g ai/ha, scale 0 to 100): 100 | Plant response rating, Groundsel ([9]; 125 g ai/ha, scale 0 to 100 (0 no effect, 100 complete control)): 100 | Plant response rating, Groundsel ([9]; 62 g ai/ha, scale 0 to 100 (0 no effect, 100 complete control)): 100 | Plant response rating, Johnsongrass [10, 16]: 5 | Plant response rating, Johnsongrass [10, 24]: 15 | Plant response rating, Johnsongrass [10, 18]: 65 | Plant response rating, Johnsongrass [10, 19]: 35 | Plant response rating, Johnsongrass [10, 20]: 0 | Plant response rating, Johnsongrass [10, 21]: 0 | Plant response rating, Johnsongrass [10, 22]: 0 | Plant response rating, Johnsongrass [10, 23]: 75 | Plant response rating, Bermudagrass [11, 16]: 50 | Plant response rating, Bermudagrass [11, 17]: 50 | Plant response rating, Bermudagrass [11, 18]: 90 | Plant response rating, Bermudagrass [11, 19]: 70 | Plant response rating, Bermudagrass [11, 20]: 10 | Plant response rating, Bermudagrass [11, 21]: 25 | Plant response rating, Bermudagrass [11, 22]: 50 | Plant response rating, Bermudagrass [11, 23]: 100 | Plant response rating, Prickly Sida [12, 16]: 60 | Plant response rating, Prickly Sida [12, 24]: 70 | Plant response rating, Prickly Sida [12, 18]: 90 | Plant response rating, Prickly Sida [12, 19]: 80 | Plant response rating, Prickly Sida [12, 20]: 0 | Plant response rating, Prickly Sida [12, 21]: 50 | Plant response rating, Prickly Sida [12, 22]: 65 | Plant response rating, Prickly Sida [12, 23]: 100 | Plant response rating, Field Bindweed [13, 16]: 35 | Plant response rating, Field Bindweed [13, 24]: 40 | Plant response rating, Field Bindweed [13, 18]: 65 | Plant response rating, Field Bindweed [13, 19]: 50 | Plant response rating, Field Bindweed [13, 20]: 0 | Plant response rating, Field Bindweed [13, 21]: 0 | Plant response rating, Field Bindweed [13, 22]: 0 | Plant response rating, Field Bindweed [13, 23]: 35 | Plant response rating, Mallow [14, 16]: 35 | Plant response rating, Mallow [14, 24]: 50 | Plant response rating, Mallow [14, 18]: 65 | Plant response rating, Mallow [14, 19]: 65 | Plant response rating, Mallow [14, 20]: 0 | Plant response rating, Mallow [14, 21]: 0 | Plant response rating, Mallow [14, 22]: 65 | Plant response rating, Mallow [14, 23]: 98 | Plant response rating, Quackgrass [15, 16]: 0 | Plant response rating, Quackgrass [15, 24]: 0 | Plant response rating, Quackgrass [15, 18]: 5 | Plant response rating, Quackgrass [15, 19]: 0 | Plant response rating, Quackgrass [15, 20]: 0 | Plant response rating, Quackgrass [15, 21]: 0 | Plant response rating, Quackgrass [15, 23]: 0 | melting point: 168 to 169 °C

From patent US8952024B2, “Herbicidal pyrimidone derivatives” (E I du Pont de Nemours and Company, priority 2009, dated 2015)
